Where only a bound is given, the exact number is not on record here.

For the first assay, the system named is HCC1954 breast ductal carcinoma. The assay is described as follows: Cell viability (Cell Titer Glo 2.0) in HCC1954, 120 hours. The assay is classed as cell-based. The conditions noted are these: HCC1954 5-Day Assay; N-methylation of the amide between P4 and P5. Here is the method: HCC1954 breast ductal carcinoma and T47D cells (ATCC, Manassas, VA, USA) were seeded into 384-well white-walled culture plates and allowed to adhere for 2-4 hours. Cells were then treated at least in duplicate by addition of 5-fold serially diluted test articles prepared at 2× final concentration and incubated at 37° C. for 120 hours. Cell viability following treatment was determined by Cell Titer Glo 2.0 Assay (Promega, Madison, WI, USA) and normalized to non-treated controls. Dose-response relationships were analyzed using GraphPad Prism (La Jolla, CA, USA), and IC50 values were derived from non-linear regression analyses using a 4-parameter logistic equation.
For orientation: Cellular ATP, detected with luciferase, serves as a proxy for viable cell number.
As to `CC[C@H](C)[C@@H]([C@@H](CC(=O)N1CCC[C@H]1[C@H](OC)[C@@H](C)C(=O)N[C@@H](Cc1ccccc1)c1nccs1)OC)N(C)C(=O)[C@@H](NC(=O)[C@H](C(C)C)N(C)C)C(C)C` [Dolastatin 10, dolastatin 10, reference compound], the “IC50[N—Me amide]/IC50[NH-amide]” value is on record as 240.

Staying with this assay, now noted: Homo sapiens, HCC1954, 120 h, read-out: IC50 (nM), in vitro potency in HCC1954.
One may read the IC50 as the concentration that inhibits the measured activity by half. Consider `CC[C@H](C)[C@@H]([C@@H](CC(=O)N1CCC[C@H]1[C@H](OC)[C@@H](C)C(=O)N(C)CCc1ccccc1N)OC)N(C)C(=O)[C@@H](NC(=O)[C@@H](C(C)C)N(C)C)C(C)C` [Compound 15, (S)-N-((3R,4S,5S)-1-((S)-2-((1R,2R)-3-((2-aminophenethyl)(methyl)amino)-1-methoxy-2-methyl-3-oxopropyl)pyrrolidin-1-yl)-3-methoxy-5-methyl-1-oxoheptan-4-yl)-2-((R)-2-(dimethylamino)-3-methylbutanamido)-N,3-dimethylbutanamide], for which the IC50 is below 5 nM.

On to `CC[C@H](C)[C@@H]([C@@H](CC(=O)N1CCC[C@H]1[C@H](OC)[C@@H](C)C(=O)N(C)CCc1ccccc1N)OC)N(C)C(=O)[C@@H](NC(=O)[C@@H](C)N(C)C)C(C)C` [Compound 17, (S)-N-((3R,4S,5S)-1-((S)-2-((1R,2R)-3-((2-aminophenethyl)(methyl)amino)-1-methoxy-2-methyl-3-oxopropyl)pyrrolidin-1-yl)-3-methoxy-5-methyl-1-oxoheptan-4-yl)-2-((R)-2-(dimethylamino)propanamido)-N,3-dimethylbutanamide], for which the IC50 was below 5 nM.

Consider `CC[C@H](C)[C@@H]([C@@H](CC(=O)N1CCC[C@H]1[C@H](OC)[C@@H](C)C(=O)N(C)CCc1ccccc1N)OC)N(C)C(=O)[C@@H](NC(=O)CN(C)C)C(C)C` [Compound 18, (S)-N-((3R,4S,5S)-1-((S)-2-((1R,2R)-3-((2-aminophenethyl)(methyl)amino)-1-methoxy-2-methyl-3-oxopropyl)pyrrolidin-1-yl)-3-methoxy-5-methyl-1-oxoheptan-4-yl)-2-(2-(dimethylamino)acetamido)-N,3-dimethylbutanamide], for which the IC50 lay in the range of 5 to 10 nM. Same read-out and setting: under `CC[C@H](C)[C@@H]([C@@H](CC(=O)N1CCC[C@H]1[C@H](OC)[C@@H](C)C(=O)N(C)CCc1ccc(N)cc1)OC)N(C)C(=O)[C@@H](NC(=O)CN(C)C)C(C)C` [Compound 27, (S)-N-((3R,4S,5S)-1-((S)-2-((IR,2R)-3-((4-aminophenethyl)(methyl)amino)-1-methoxy-2-methyl-3-oxopropyl)pyrrolidin-1-yl)-3-methoxy-5-methyl-1-oxoheptan-4-yl)-2-(2-(dimethylamino)acetamido)-N,3-dimethylbutanamide] stands below 5 nM.

The same assay, now with this note: Trastuzumab conjugate of the numbered linker-payload, HCC1954; read-out: ADC (Trastuzumab) IC50 in HCC1954 assay.
For the compound `CC[C@H](C)[C@@H]([C@@H](CC(=O)N1CCC[C@H]1[C@H](OC)[C@@H](C)C(=O)N(C)CCc1cccc(NC(=O)[C@H](C)NC(=O)[C@H](C)NC(=O)CN2C(=O)C=CC2=O)c1)OC)N(C)C(=O)[C@@H](NC(=O)[C@H](C(C)C)N(C)C)C(C)C` [Compound 28, (S)-2-((S)-2-(dimethylamino)-3-methylbutanamido)-N-((3R,4S,5S)-1-((S)-2-((1R,2R)-3-((3-((S)-2-((S)-2-(2-(2,5-dioxo-2,5-dihydro-1H-pyrrol-1-yl)acetamido)propanamido)propanamido)phenethyl)(methyl)amino)-1-methoxy-2-methyl-3-oxopropyl)pyrrolidin-1-yl)-3-methoxy-5-methyl-1-oxoheptan-4-yl)-N,3-dimethylbutanamide 2,2,2-trifluoroacetate], the IC50 is below 5 nM. The same measure, in the same setting: under `CC[C@H](C)[C@@H]([C@@H](CC(=O)N1CCC[C@H]1[C@H](OC)[C@@H](C)C(=O)N(C)CCc1cccc(NC(=O)[C@H](C)NC(=O)[C@H](C)NC(=O)CN2C(=O)C=CC2=O)c1)OC)N(C)C(=O)[C@@H](NC(=O)[C@H](C)N(C)C)C(C)C` [Compound 29, (S)-2-((S)-2-(dimethylamino)propanamido)-N-((3R,4S,5S)-1-((S)-2-((1R,2R)-3-((3-((S)-2-((S)-2-(2-(2,5-dioxo-2,5-dihydro-1H-pyrrol-1-yl)acetamido)propanamido)propanamido)phenethyl)(methyl)amino)-1-methoxy-2-methyl-3-oxopropyl)pyrrolidin-1-yl)-3-methoxy-5-methyl-1-oxoheptan-4-yl)-N,3-dimethylbutanamide 2,2,2-trifluoroacetate] stands below 5 nM; under `CC[C@H](C)[C@@H]([C@@H](CC(=O)N1CCC[C@H]1[C@H](OC)[C@@H](C)C(=O)N(C)CCc1cccc(NC(=O)[C@H](C)NC(=O)[C@H](C)NC(=O)CN2C(=O)C=CC2=O)c1)OC)N(C)C(=O)[C@@H](NC(=O)[C@@H](C)N(C)C)C(C)C` [Compound 30, (S)-2-((R)-2-(dimethylamino)propanamido)-N-((3R,4S,5S)-1-((S)-2-((1R,2R)-3-((3-((S)-2-((S)-2-(2-(2,5-dioxo-2,5-dihydro-1H-pyrrol-1-yl)acetamido)propanamido)propanamido)phenethyl)(methyl)amino)-1-methoxy-2-methyl-3-oxopropyl)pyrrolidin-1-yl)-3-methoxy-5-methyl-1-oxoheptan-4-yl)-N,3-dimethylbutanamide 2,2,2-trifluoroacetate], below 5 nM; under `CC[C@H](C)[C@@H]([C@@H](CC(=O)N1CCC[C@H]1[C@H](OC)[C@@H](C)C(=O)N(C)CCc1cccc(NC(=O)[C@H](C)NC(=O)[C@H](C)NC(=O)CN2C(=O)C=CC2=O)c1)OC)N(C)C(=O)[C@@H](NC(=O)CN(C)C)C(C)C` [Compound 31, (S)-2-(2-(dimethylamino)acetamido)-N-((3R,4S,5S)-1-((S)-2-((IR,2R)-3-((3-((S)-2-((S)-2-(2-(2,5-dioxo-2,5-dihydro-1H-pyrrol-1-yl)acetamido)propanamido)propanamido)phenethyl)(methyl)amino)-1-methoxy-2-methyl-3-oxopropyl)pyrrolidin-1-yl)-3-methoxy-5-methyl-1-oxoheptan-4-yl)-N,3-dimethylbutanamide 2,2,2-trifluoroacetate], below 5 nM. Same read-out and setting: the same measure for `CC[C@H](C)[C@@H]([C@@H](CC(=O)N1CCC[C@H]1[C@H](OC)[C@@H](C)C(=O)N(C)CCc1cccc(NC(=O)[C@H](C)NC(=O)[C@H](C)NC(=O)CN2C(=O)C=CC2=O)c1)OC)N(C)C(=O)[C@@H](NC(=O)C(C)(C)N(C)C)C(C)C` [Compound 32, (S)-2-(2-(dimethylamino)-2-methylpropanamido)-N-((3R,4S,5S)-1-((S)-2-((1R,2R)-3-((3-((S)-2-((S)-2-(2-(2,5-dioxo-2,5-dihydro-1H-pyrrol-1-yl)acetamido)propanamido)propanamido)phenethyl)(methyl)amino)-1-methoxy-2-methyl-3-oxopropyl)pyrrolidin-1-yl)-3-methoxy-5-methyl-1-oxoheptan-4-yl)-N,3-dimethylbutanamide 2,2,2-trifluoroacetate]: below 5 nM; for `CC[C@H](C)[C@@H]([C@@H](CC(=O)N1CCC[C@H]1[C@H](OC)[C@@H](C)C(=O)N(C)CCc1cccc(NC(=O)[C@H](C)NC(=O)[C@H](C)NC(=O)CN2C(=O)C=CC2=O)c1)OC)N(C)C(=O)[C@@H](NC(=O)C1(N(C)C)CCC1)C(C)C` [Compound 33, 1-(dimethylamino)-N-((S)-1-(((3R,4S,5S)-1-((S)-2-((1R,2R)-3-((3-((S)-2-((S)-2-(2-(2,5-dioxo-2,5-dihydro-1H-pyrrol-1-yl)acetamido)propanamido)propanamido)phenethyl)(methyl)amino)-1-methoxy-2-methyl-3-oxopropyl)pyrrolidin-1-yl)-3-methoxy-5-methyl-1-oxoheptan-4-yl)(methyl)amino)-3-methyl-1-oxobutan-2-yl)cyclobutanecarboxamide 2,2,2-trifluoroacetate]: above 10 nM; for `CC[C@H](C)[C@@H]([C@@H](CC(=O)N1CCC[C@H]1[C@H](OC)[C@@H](C)C(=O)N(C)CCc1cccc(NC(=O)[C@H](C)NC(=O)[C@H](C)NC(=O)CN2C(=O)C=CC2=O)c1)OC)N(C)C(=O)[C@@H](NC(=O)[C@H]1CCCN1C)C(C)C` [Compound 37, (R)-N-((S)-1-(((3R,4S,5S)-1-((S)-2-((IR,2R)-3-((3-((S)-2-((S)-2-(2-(2,5-dioxo-2,5-dihydro-1H-pyrrol-1-yl)acetamido)propanamido)propanamido)phenethyl)(methyl)amino)-1-methoxy-2-methyl-3-oxopropyl)pyrrolidin-1-yl)-3-methoxy-5-methyl-1-oxoheptan-4-yl)(methyl)amino)-3-methyl-1-oxobutan-2-yl)-1-methylpyrrolidine-2-carboxamide 2,2,2-trifluoroacetate]: below 5 nM.

For `CC[C@H](C)[C@@H]([C@@H](CC(=O)N1CCC[C@H]1[C@H](OC)[C@@H](C)C(=O)N(C)CCc1cccc(NC(=O)[C@H](C)NC(=O)[C@H](C)NC(=O)CN2C(=O)C=CC2=O)c1)OC)N(C)C(=O)[C@@H](NC(=O)C(C)(C)CN(C)C)C(C)C` [Compound 38, (S)-2-(3-(dimethylamino)-2,2-dimethylpropanamido)-N-((3R,4S,5S)-1-((S)-2-((1R,2R)-3-((3-((S)-2-((S)-2-(2-(2,5-dioxo-2,5-dihydro-1H-pyrrol-1-yl)acetamido)propanamido)propanamido)phenethyl)(methyl)amino)-1-methoxy-2-methyl-3-oxopropyl)pyrrolidin-1-yl)-3-methoxy-5-methyl-1-oxoheptan-4-yl)-N,3-dimethylbutanamide 2,2,2-trifluoroacetate], the IC50 is above 10 nM.

The values above are taken from patent publication US20260131016A1, “NOVEL AURISTATIN ANALOGS AND IMMUNOCONJUGATES THEREOF” (ADCENTRX THERAPEUTICS INC., priority 2021, published 2026).
